From US10538555B2, “Macrocyclic inhibitors of the PD-1/PD-L1 and CD80(B7-1)/PD-L1 protein/protein interactions” (BRISTOL-MYERS SQUIBB COMPANY, priority 2014, dated 2020) come the findings set out here.

*1 amine or outer side, *2 acyl side, *3 side chain or, on linkers, in order; H or OH if unused. Where a SMILES comes first, the peptide text is derived from it. Bridges are numbered along the chain shown (N, C = ends). [ ]: non-standard residue; d: D form. ξ: configuration not given here. X5 = O=C(O)CC[C@H](N[*:1])C(=O)C1C[C@H](O)C[C@H]1C(=O)[*:2]; Trp(1-CH2COOH) = N[C@@H](Cc1cn(CC(=O)O)c2ccccc12)C(=O)O; Phe(3,4,5-F3) = N[C@@H](Cc1cc(F)c(F)c(F)c1)C(=O)O; Phe(3,4-F2) = N[C@@H](Cc1ccc(F)c(F)c1)C(=O)O; Phe(4-Cl) = N[C@@H](Cc1ccc(Cl)cc1)C(=O)O; Phe(4-F) = N[C@@H](Cc1ccc(F)cc1)C(=O)O; d(cisHyp) = O=C(O)[C@H]1C[C@@H](O)CN1; Bta = N[C@@H](Cc1csc2ccccc12)C(=O)O; NMeY = CN[C@@H](Cc1ccc(O)cc1)C(=O)O; Hyp = O=C(O)[C@@H]1C[C@@H](O)CN1; NMeF = CN[C@@H](Cc1ccccc1)C(=O)O; X1 = O=C([C@H]1COCCN1[*:1])[*:2]; NMehSer = CN[C@@H](CCO)C(=O)O; NMeNle = CCCC[C@H](NC)C(=O)O; Pip = O=C(O)[C@@H]1CCCCN1; dPip = O=C(O)[C@H]1CCCCN1; hSer = N[C@@H](CCO)C(=O)O; NMeA = CN[C@@H](C)C(=O)O; Orn = NCCC[C@H](N)C(=O)O; Dab = NCC[C@H](N)C(=O)O; Abu = CC[C@H](N)C(=O)O; Dap = NC[C@H](N)C(=O)O; CO = O=C([*:1])[*:2]; ξC = NC(CS)C(=O)O; Sar = CNCC(=O)O

The target in one assay is T1, Human PD-L1/PD-1 (Homo sapiens, UniProt Q9NZQ7).
T1 construct: TVMV protease cleavage site (C); made in house; host or cells: HEK293T cells
T1 sequence (Q9NZQ7 with tags, fused parts or gaps): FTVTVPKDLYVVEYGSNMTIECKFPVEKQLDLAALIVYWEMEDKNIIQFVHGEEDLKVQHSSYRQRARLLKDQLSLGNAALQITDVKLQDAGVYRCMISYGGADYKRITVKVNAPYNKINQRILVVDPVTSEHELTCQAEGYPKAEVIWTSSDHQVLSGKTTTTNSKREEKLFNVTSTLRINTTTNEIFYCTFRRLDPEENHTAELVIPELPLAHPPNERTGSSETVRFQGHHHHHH
The assay is described as follows: HTRF Human PD-L1/PD-1 binding assay (PD-1-Ig/PD-L1-His). As to conditions: PD-L1-His 10 nM, PD-1-Ig 20 nM; class symbol; read-out: HTRF Human PD-L1/PD-1 Binding Assay IC50 Range. The essentials: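 HTRF read-out (665/620 nm ratio) after 30 min equilibration with Eu-cryptate anti-Ig mAb (1 nM) and APC anti-His mAb (20 nM). Peptides preincubated 15 min with PD-L1-His (10 nM), then PD-1-Ig (20 nM) added for 15 min.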
In general terms: TR-FRET usually uses a lanthanide donor and a delayed reading to cut background.
Turning to `CCCC[C@H]1C(=O)N2CCC[C@@H]2C(=O)N[C@@H](CC(=O)O)C(=O)N[C@@H](C(C)C)C(=O)N(C)[C@@H](CCOC)C(=O)N[C@@H](Cc2ccc(O)cc2)C(=O)N2CCCC[C@@H]2C(=O)N[C@@H](Cc2c[nH]c3ccccc23)C(=O)N[C@@H](Cc2ccc(O)cc2)C(=O)N[C@@H](CC(C)C)C(=O)N[C@H](C(=O)NCC(N)=O)CSCC(=O)N[C@@H](Cc2ccc(F)cc2)C(=O)N(C)[C@@H](Cc2ccccc2)C(=O)N1C` [Example 9220] ({CH2CO}-[Phe(4-F)][NMeF][NMeNle][dP]DV[NMehSer](Me)Y[dPip]WYLCG-NH2; thioether N-13), the IC50 lay within 100 to 990 nM. Same read-out and setting: to `CCCC[C@H]1C(=O)N(C)[C@@H](CCCC)C(=O)N[C@@H](CC(C)C)C(=O)NC(C(=O)NCC(N)=O)CSCC(=O)N[C@@H](Cc2ccc(O)cc2)C(=O)N(C)[C@@H](C)C(=O)N[C@@H](CC(N)=O)C(=O)N2CCC[C@H]2C(=O)N[C@@H](CC(N)=O)C(=O)N[C@@H](CC(C)C)C(=O)N2CCC[C@H]2C(=O)N[C@@H](Cc2csc3ccccc23)C(=O)N[C@@H](CO)C(=O)N[C@@H](Cc2c[nH]c3ccccc23)C(=O)N1C` (stereo partly drawn) [Example 9160] ({CH2CO}-Y[NMeA]NPNLP[Bta]SW[NMeNle][NMeNle]L[ξC]G-NH2; thioether N-14) belongs 10 to 99.9 nM; to `CCCC[C@H]1C(=O)N(C)[C@@H](CCCC)C(=O)N[C@@H](CC(C)C)C(=O)N[C@H](C(=O)NCC(N)=O)CSCC(=O)N[C@@H](Cc2ccc(O)cc2)C(=O)N(C)[C@@H](C)C(=O)N[C@@H](CC(=O)O)C(=O)N2CCC[C@H]2C(=O)N[C@@H](CN)C(=O)N[C@@H](CC(C)C)C(=O)N2C[C@H](O)C[C@H]2C(=O)N[C@@H](Cc2c[nH]c3ccccc23)C(=O)N[C@@H](CCN)C(=O)N[C@@H](Cc2cn(CC(=O)O)c3ccccc23)C(=O)N1C` [Example 5171] ({CH2CO}-Y[NMeA]DP[Dap]L[Hyp]W[Dab][Trp(1-CH2COOH)][NMeNle][NMeNle]LCG-NH2; thioether N-14), 1 to 9.9 nM. On the same count and under the same terms, to `CCCC[C@H]1C(=O)N(C)CC(=O)N[C@@H](CO)C(=O)N[C@@H](CC)C(=O)N(C)[C@@H](Cc2ccccc2)C(=O)N[C@@H](Cc2ccc(O)cc2)C(=O)N2CCCC[C@@H]2C(=O)N[C@@H](Cc2c[nH]c3ccccc23)C(=O)N[C@@H](Cc2ccc(O)cc2)C(=O)N[C@@H](CC(C)C)C(=O)N[C@H](C(=O)NCC(N)=O)CSCC(=O)N[C@@H](Cc2ccccc2)C(=O)N(C)[C@@H](Cc2ccccc2)C(=O)N1C` [Example 10061] ({CH2CO}-F[NMeF][NMeNle][Sar]S[Abu][NMeF]Y[dPip]WYLCG-NH2; thioether N-13) belongs 10 to 99.9 nM. Take `CCCC[C@H]1C(=O)N(C)[C@@H](CCCC)C(=O)N[C@@H](CCCNC(=N)N)C(=O)N[C@H](C(=O)NCC(N)=O)CSCC(=O)N[C@@H](Cc2ccc(Cl)cc2)C(=O)N(C)[C@@H](C)C(=O)N[C@@H](CC(N)=O)C(=O)N2CCC[C@H]2C(=O)N[C@@H](Cc2cnc[nH]2)C(=O)N[C@@H](CCC(=O)O)C(=O)C2C[C@H](O)C[C@H]2C(=O)N[C@@H](Cc2c[nH]c3ccccc23)C(=O)N[C@@H](CCN)C(=O)N[C@@H](Cc2c[nH]c3ccccc23)C(=O)N1C` (stereo partly drawn) [Example 7079] ({CH2CO}-[Phe(4-Cl)][NMeA]NPH[X5]W[Dab]W[NMeNle][NMeNle]RCG-NH2; thioether N-13): the IC50 was in the range of 1 to 9.9 nM. Still for that read-out and setting: to `CCCC[C@H]1C(=O)N(C)[C@@H](CCCC)C(=O)N[C@@H](CNC(=O)O)C(=O)N[C@H](C(=O)NCC(N)=O)CSCC(=O)N[C@@H](Cc2ccc(O)cc2)C(=O)N(C)[C@@H](C)C(=O)N[C@@H](CC(=O)O)C(=O)N2CCC[C@H]2C(=O)N[C@@H](CN)C(=O)N[C@@H](CCC(=O)O)C(=O)N2C[C@H](O)C[C@H]2C(=O)N[C@@H](Cc2c[nH]c3ccccc23)C(=O)N[C@@H](CCC(=O)O)C(=O)N[C@@H](Cc2c[nH]c3ccccc23)C(=O)N1C` [Example 5154] ({CH2CO}-Y[NMeA]DP[Dap]E[Hyp]WEW[NMeNle][NMeNle][Dap](CO)CG-NH2; thioether N-14) belongs 10 to 99.9 nM; to `CCCC[C@H]1C(=O)N2C[C@H](O)C[C@@H]2C(=O)N[C@@H](CC(=O)O)C(=O)N[C@@H](C(C)C)C(=O)N(C)[C@@H](Cc2ccccc2)C(=O)N[C@@H](CCC(=O)O)C(=O)N2CCC[C@@H]2C(=O)N[C@@H](Cc2c[nH]c3ccccc23)C(=O)N[C@@H](Cc2ccc(O)cc2)C(=O)N[C@@H](CCO)C(=O)N[C@H](C(=O)NCC(N)=O)CSCC(=O)N[C@@H](Cc2cc(F)c(F)c(F)c2)C(=O)N(C)[C@@H](Cc2ccccc2)C(=O)N1C` [Example 10154] ({CH2CO}-[Phe(3,4,5-F3)][NMeF][NMeNle][d(cisHyp)]DV[NMeF]E[dP]WY[hSer]CG-NH2; thioether N-13), 1 to 9.9 nM; to `CCCC[C@H]1C(=O)N2CCOC[C@@H]2C(=O)N[C@@H](CC(=O)O)C(=O)N[C@@H](C(C)C)C(=O)N(C)[C@@H](Cc2ccccc2)C(=O)N[C@@H](CCN)C(=O)N2CCOC[C@@H]2C(=O)N[C@@H](Cc2c[nH]c3ccccc23)C(=O)N[C@@H](Cc2ccc(O)cc2)C(=O)N[C@@H](CCC(=O)O)C(=O)N[C@H](C(=O)NCC(N)=O)CSCC(=O)N[C@@H](Cc2cc(F)c(F)c(F)c2)C(=O)N(C)[C@@H](Cc2ccc(O)cc2)C(=O)N1C` [Example 10628] ({CH2CO}-[Phe(3,4,5-F3)][NMeY][NMeNle][X1]DV[NMeF][Dab][X1]WYECG-NH2; thioether N-13), 10 to 99.9 nM. The same measure, in the same setting: to `CCCC[C@H]1C(=O)N2C[C@H](O)C[C@@H]2C(=O)N[C@@H](CC(=O)O)C(=O)N[C@@H](C(C)C)C(=O)N(C)[C@@H](Cc2ccccc2)C(=O)N[C@@H](CC(N)=O)C(=O)N2C[C@H](O)C[C@@H]2C(=O)N[C@@H](Cc2c[nH]c3ccccc23)C(=O)N[C@@H](Cc2ccc(O)cc2)C(=O)N[C@@H](CCCCN)C(=O)N[C@H](C(=O)NCC(N)=O)CSCC(=O)N[C@@H](Cc2cc(F)c(F)c(F)c2)C(=O)N(C)[C@@H](Cc2ccccc2)C(=O)N1C` [Example 9362] ({CH2CO}-[Phe(3,4,5-F3)][NMeF][NMeNle][d(cisHyp)]DV[NMeF]N[d(cisHyp)]WYKCG-NH2; thioether N-13) belongs 1 to 9.9 nM; to `CCCC[C@H]1C(=O)N(C)[C@@H](CCCC)C(=O)N[C@@H](C)C(=O)N[C@H](C(=O)NCC(N)=O)CSCC(=O)N[C@@H](Cc2ccc(O)cc2)C(=O)N2CCCC[C@H]2C(=O)N[C@@H](CC(=O)O)C(=O)N2CCC[C@H]2C(=O)N[C@@H](CN)C(=O)N[C@@H](CCC(=O)O)C(=O)N2C[C@H](O)C[C@H]2C(=O)N[C@@H](Cc2c[nH]c3ccccc23)C(=O)N[C@@H](CO)C(=O)N[C@@H](Cc2csc3ccccc23)C(=O)N1C` [Example 1510] ({CH2CO}-Y[Pip]DP[Dap]E[Hyp]WS[Bta][NMeNle][NMeNle]ACG-NH2; thioether N-14), 1 to 9.9 nM. For `CCCC[C@H]1C(=O)N2C[C@H](O)C[C@@H]2C(=O)N[C@@H](CC(=O)O)C(=O)N[C@@H](C(C)C)C(=O)N(C)[C@@H](Cc2ccccc2)C(=O)N[C@@H](CCCN)C(=O)N2C[C@H](O)C[C@@H]2C(=O)N[C@@H](Cc2c[nH]c3ccccc23)C(=O)N[C@@H](Cc2ccc(O)cc2)C(=O)N[C@@H](CC(C)C)C(=O)N[C@H](C(=O)NCC(N)=O)CSCC(=O)N[C@@H](Cc2ccc(F)c(F)c2)C(=O)N(C)[C@@H](Cc2ccccc2)C(=O)N1C` [Example 9296] ({CH2CO}-[Phe(3,4-F2)][NMeF][NMeNle][d(cisHyp)]DV[NMeF][Orn][d(cisHyp)]WYLCG-NH2; thioether N-13), the IC50 lay within 1 to 9.9 nM. Same read-out and setting: to `CCCC[C@H]1C(=O)N(C)[C@@H](CCCC)C(=O)N[C@@H](CN)C(=O)N[C@H](C(=O)NCC(N)=O)CSCC(=O)N[C@@H](Cc2ccc(O)cc2)C(=O)N(C)[C@@H](C)C(=O)N[C@@H](CC(=O)O)C(=O)N2CCC[C@H]2C(=O)N[C@@H](Cc2c[nH]cn2)C(=O)N[C@@H](CCC(=O)O)C(=O)N2C[C@H](O)C[C@H]2C(=O)N[C@@H](Cc2c[nH]c3ccccc23)C(=O)N[C@@H](CCN)C(=O)N[C@@H](Cc2cn(CC(=O)O)c3ccccc23)C(=O)N1C` [Example 5220] belongs 100 to 990 nM. On the same count and under the same terms, to `CCCC[C@H]1C(=O)N(C)[C@@H](CCCC)C(=O)N[C@@H](C)C(=O)NC(C(=O)NCC(N)=O)CSCC(=O)N[C@@H](Cc2ccc(O)cc2)C(=O)N(C)[C@@H](C)C(=O)N[C@@H](CC(N)=O)C(=O)N2CCC[C@H]2C(=O)N[C@@H](CC(N)=O)C(=O)N[C@@H](CC(C)C)C(=O)N2CCC[C@H]2C(=O)N[C@@H](Cc2c[nH]c3ccccc23)C(=O)N[C@@H](CO)C(=O)N[C@@H](Cc2csc3ccccc23)C(=O)N1C` (stereo partly drawn) [Example 9133] ({CH2CO}-Y[NMeA]NPNLPWS[Bta][NMeNle][NMeNle]A[ξC]G-NH2; thioether N-14) belongs 1 to 9.9 nM; to `CCCC[C@H]1C(=O)N(C)[C@@H](CCCC)C(=O)N[C@@H](CC(C)C)C(=O)N[C@H](C(=O)NCC(N)=O)CSCC(=O)N[C@@H](Cc2ccc(O)cc2)C(=O)N(C)[C@@H](C)C(=O)N[C@@H](CC(N)=O)C(=O)N2CCC[C@H]2C(=O)NCC(=O)N[C@@H](CCC(N)=O)C(=O)N2C[C@H](O)C[C@H]2C(=O)N[C@@H](Cc2c[nH]c3ccccc23)C(=O)NCC(=O)N[C@@H](Cc2c[nH]c3ccccc23)C(=O)N1C` [Example 5183] ({CH2CO}-Y[NMeA]NPGQ[Hyp]WGW[NMeNle][NMeNle]LCG-NH2; thioether N-14), 10 to 99.9 nM.

The same assay, now with this note: PD-L1-His 10 nM, PD-1-Ig 20 nM; read-out: HTRF Human PD-L1/PD-1 Binding Assay IC50.
Consider `CCCC[C@H]1C(=O)N(C)CC(=O)N[C@@H](CO)C(=O)N[C@@H](C)C(=O)N(C)[C@@H](Cc2ccccc2)C(=O)N[C@@H](Cc2ccc(O)cc2)C(=O)N2CCCC[C@@H]2C(=O)N[C@@H](Cc2c[nH]c3ccccc23)C(=O)N[C@@H](Cc2ccc(O)cc2)C(=O)N[C@@H](CC(C)C)C(=O)N[C@H](C(=O)NCC(N)=O)CSCC(=O)N[C@@H](Cc2ccccc2)C(=O)N(C)[C@@H](Cc2ccccc2)C(=O)N1C` [Example 10057] ({CH2CO}-F[NMeF][NMeNle][Sar]SA[NMeF]Y[dPip]WYLCG-NH2; thioether N-13), for which the IC50 is 215 nM.
